Laboratory results from ChEMBL document CHEMBL1201862, “PubChem BioAssay data set” (2004).
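These data come from cells grown in 96-well plates and exposed to compound for 48 hours at five concentrations. GI50: concentration for 50% inhibition of growth.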 Active and inactive are the calls of the source. No stated cut-off is given here; in the data, active = GI50 up to about 1.1 µM and inactive = higher.

Legend:
Experiment in all cases: NCI tumour cell line growth inhibition, 48 h
[1] = test system: HCT-15
[2] = test system: LOX IMVI
[3] = test system: NCI-H460
[4] = test system: SF-539
[5] = test system: 786-0
[6] = test system: UO-31
[7] = test system: IGROV-1
[8] = test system: U-251
[9] = test system: HOP-92
[10] = test system: EKVX
[11] = test system: SR
[12] = test system: CAKI-1
[13] = test system: SK-OV-3
[14] = test system: SW-620
[15] = test system: MOLT-4
[16] = test system: NCI-H226

SMILES | GI50 [1] [µM] | GI50 [2] | GI50 [3] | GI50 [4] | GI50 [5] | GI50 [6] | GI50 [7] | GI50 [8] | GI50 [9] | GI50 [10] | GI50 [11] | GI50 [12] | GI50 [13] | GI50 [14] | GI50 [15] | GI50 [16]
CC1(C)C2CCC3(C2)CS(=O)(=O)N2OC231 (stereo not drawn) | 16.1 | 16.3 µM (inactive) | 19.5 µM (inactive) | 18.5 µM (inactive) | 16.9 µM (inactive) | 16.1 µM (inactive) | 19.5 µM (inactive) | 34.4 µM (inactive) | 10.8 µM (inactive) | 15.7 µM (inactive) | > 100 µM (inactive) | 16 µM (inactive) | 49.7 µM (inactive) | 16.5 µM (inactive) | – | –
COCCCNC(=O)CC(=O)NCCCOC | > 100 | – | > 100 µM (inactive) | > 100 µM (inactive) | > 100 µM (inactive) | > 100 µM (inactive) | > 100 µM (inactive) | > 100 µM (inactive) | > 100 µM (inactive) | > 100 µM (inactive) | > 100 µM (inactive) | – | – | > 100 µM (inactive) | > 100 µM (inactive) | –
Cc1ccc([N+](=O)[O-])cc1NC(=O)/C(CC(=O)c1sc(C(N)=S)nc1C)=N\N | > 100 | > 100 µM (inactive) | 35.1 µM (inactive) | > 100 µM (inactive) | 40.6 µM (inactive) | 48.1 µM (inactive) | 30.6 µM (inactive) | 32.1 µM (inactive) | 62.8 µM (inactive) | 65.3 µM (inactive) | 88.9 µM (inactive) | > 100 µM (inactive) | 44.1 µM (inactive) | > 100 µM (inactive) | 68.5 µM (inactive) | –
COC(=O)C(Cc1ccccc1)NC(=O)Cn1ccnc1[N+](=O)[O-] (stereo not drawn) | > 100 | > 100 µM (inactive) | > 100 µM (inactive) | > 100 µM (inactive) | > 100 µM (inactive) | > 100 µM (inactive) | > 100 µM (inactive) | > 100 µM (inactive) | 63.8 µM (inactive) | > 100 µM (inactive) | – | > 100 µM (inactive) | > 100 µM (inactive) | > 100 µM (inactive) | > 100 µM (inactive) | 34 µM (inactive)
N#Cc1nc(C2OC(COC(=O)c3ccccc3)C(OC(=O)c3ccccc3)C2OC(=O)c2ccccc2)oc1N (stereo not drawn) | 16.7 | 67.1 µM (inactive) | 76.4 µM (inactive) | 58.6 µM (inactive) | 27 µM (inactive) | 12 µM (inactive) | > 100 µM (inactive) | 32.5 µM (inactive) | 96.4 µM (inactive) | 39.5 µM (inactive) | – | 26.5 µM (inactive) | > 100 µM (inactive) | 12.1 µM (inactive) | 5.6 µM (inactive) | 14.2 µM (inactive)
COc1cc2c(cc1OC)C1Cc3cc(OC)c(OC)cc3N1CC2 (stereo not drawn) | – | – | 40.2 µM (inactive) | – | 17.7 µM (inactive) | 36.9 µM (inactive) | 52.6 µM (inactive) | 35.4 µM (inactive) | 33 µM (inactive) | 27.7 µM (inactive) | 35.9 µM (inactive) | 21.9 µM (inactive) | 31.6 µM (inactive) | 29.9 µM (inactive) | 30.8 µM (inactive) | 20.3 µM (inactive)
CC(=O)c1c(O)c2c([nH]c1=O)CCCC2 | 48.1 | 20.1 µM (inactive) | 6.84 µM (inactive) | – | > 100 µM (inactive) | 17.2 µM (inactive) | 32.9 µM (inactive) | 23.6 µM (inactive) | > 100 µM (inactive) | 51.1 µM (inactive) | – | > 100 µM (inactive) | 25.6 µM (inactive) | > 100 µM (inactive) | 8.34 µM (inactive) | –
O=C(Cc1ccccc1)N/N=C(/c1nc2ccc([N+](=O)[O-])cc2nc1O)C(O)c1ccc(C(O)/C(=N/NC(=O)Cc2ccccc2)c2nc3ccc([N+](=O)[O-])cc3nc2O)cc1 (stereo not drawn) | 19.4 | 12.1 µM (inactive) | – | 56.8 µM (inactive) | > 100 µM (inactive) | – | > 100 µM (inactive) | – | > 100 µM (inactive) | > 100 µM (inactive) | > 10 µM (inactive) | 40.1 µM (inactive) | > 100 µM (inactive) | 39.4 µM (inactive) | – | > 100 µM (inactive)
C/C(CC(=O)NC1=CC=C(NC(=O)C/C(C)=N\Nc2ccccc2)CC1)=N/Nc1ccccc1 | 29.7 | 70.8 µM (inactive) | > 100 µM (inactive) | > 100 µM (inactive) | > 100 µM (inactive) | > 100 µM (inactive) | > 100 µM (inactive) | > 100 µM (inactive) | > 100 µM (inactive) | > 100 µM (inactive) | 37.8 µM (inactive) | > 100 µM (inactive) | > 100 µM (inactive) | – | > 100 µM (inactive) | > 100 µM (inactive)
Cc1ccc(C2=Nc3ccccc3[S+]([O-])C(c3ccc4c(c3)OCO4)C2)cc1 (stereo not drawn) | – | 15.9 µM (inactive) | > 10 µM (inactive) | 21.2 µM (inactive) | 19.9 µM (inactive) | 40.8 µM (inactive) | 34.8 µM (inactive) | 13 µM (inactive) | – | 52 µM (inactive) | 22.2 µM (inactive) | 24.5 µM (inactive) | 42.6 µM (inactive) | 18.5 µM (inactive) | 23.9 µM (inactive) | 52.6 µM (inactive)
